The term IC50 denotes the concentration at which inhibition is half-maximal.

Assay [1] deals with T1, Recombinant human TYK2 catalytic domain (Homo sapiens, UniProt P29597).
T1 construct: Recombinant human TYK2 catalytic domain (amino acids 871-1187; catalog number 08-147); purchased Carna biosciences 08-147
T1 sequence (P29597 871-1187): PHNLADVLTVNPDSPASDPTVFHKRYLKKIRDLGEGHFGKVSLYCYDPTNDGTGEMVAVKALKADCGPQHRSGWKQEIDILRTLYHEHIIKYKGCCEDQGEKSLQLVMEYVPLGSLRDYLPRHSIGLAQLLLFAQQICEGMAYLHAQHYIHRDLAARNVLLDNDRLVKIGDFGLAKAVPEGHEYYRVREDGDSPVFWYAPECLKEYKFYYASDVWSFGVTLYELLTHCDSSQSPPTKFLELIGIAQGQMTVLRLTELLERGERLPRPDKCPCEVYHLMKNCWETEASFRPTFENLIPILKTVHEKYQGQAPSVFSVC
The assay can be described thus: TYK2 inhibition assay. The assay is classed as biochemical. To be noted: semi-quantitative score. The protocol: Recombinant human TYK2 catalytic domain (amino acids 871-1187; catalog number 08-147) was purchased from Carna biosciences. 5 ng of TYK2 was incubated with 12.5 μg polyGT substrate (Sigma catalog number P0275) in kinase reaction buffer (25 mM Hepes pH 7.5, 100 mM NaCl, 0.2 mM Na3VO4, 0.1% NP-40, 0.1 μM non-radioactive ATP, 0.125 μCi 33P-gamma-ATP (GE Healthcare, catalog number AH9968) final concentrations) with or without 5 μL containing test compound or vehicle (DMSO, 1% final concentration), in a total volume of 25 μL, in a polypropylene 96-well plate (Greiner, V-bottom). After 90 min at 30° C., reactions were stopped by adding of 25 μL/well of 150 mM phosphoric acid. All of the terminated kinase reaction was transferred to prewashed (75 mM phosphoric acid) 96 well filter plates (Perkin Elmer catalog number 6005177) using a cell harvester (Perkin Elmer). Plates were washed 6 times with 300 μL per well of a 75 mM phosphoric acid solution and the bottom of the plates was sealed. 40 μL/well of Microscint-20 was added, the top of the plates was sealed and readout was performed using the Topcount (Perkin Elmer). Kinase activity was calculated by subtracting counts per minute (cpm) obtained in the presence of a positive control inhibitor (10 μM staurosporine) from cpm obtained in the presence of vehicle. The ability of a test compound to inhibit this activity was determined as: Percentage inhibition=((cpm determined for sample with test compound present−cpm determined for sample with positive control inhibitor) divided by (cpm determined in the presence of vehicle−cpm determined for sample with positive control inhibitor))*100%.
Dose dilution series were prepared for the compounds enabling the testing of dose-response effects in the TYK2 assay and the calculation of the IC50 for each compound. Each compound was routinely tested at concentration of 20 μM followed by a 1/3 serial dilution, 8 points (20 μM-6.67 μM-2.22 μM-740 nM-247 nM-82 nM-27 nM-9 nM) in a final concentration of 1% DMSO.

The subject of assay [2] is Collagen Induced Arthritis (CIA). Briefly: rat CIA model. The assay is classed as in vivo. As to the method: Completed Freund's adjuvant (CFA) and incomplete Freund's adjuvant (IFA) were purchased from Difco. Bovine collagen type II (CII), lipopolysaccharide (LPS), and Enbrel were obtained from Chondrex (Isle d'Abeau, France); Sigma (P4252, L'Isle d'Abeau, France), Whyett (25 mg injectable syringe, France) Acros Organics (Palo Alto, Calif.), respectively. All other reagents used were of reagent grade and all solvents were of analytical grade.
Dark Agouti rats (male, 7-8 weeks old) were obtained from Harlan Laboratories (Maison-Alfort, France). Rats were kept on a 12 hours light/dark cycle (0700-1900). The temperature was maintained at 22° C., and food and water were provided ad libitum.
One day before the experiment, CII solution (2 mg/mL) was prepared with 0.05 M acetic acid and stored at 4° C. Just before the immunization, equal volumes of adjuvant (IFA) and CII were mixed by a homogenizer in a pre-cooled glass bottle in an ice water bath. Extra adjuvant and prolonged homogenization might be required if an emulsion is not formed. 0.2 mL of the emulsion was injected intradermally at the base of the tail of each rat on day 1, a second booster intradermal injection (CII solution at 2 mg/mL in CFA 0.1 mL saline) was performed on day 9. This immunization method was modified from published methods (Sims et al, 2004; Jou et al., 2005).
The therapeutic effects of the test compounds were tested in the rat CIA model. Rats were randomly divided into equal groups and each group contained 10 rats. All rats were immunized on day 1 and boosted on day 9. Therapeutic dosing lasted from day 16 to day 30. The negative control group was treated with vehicle (MC 0.5%) and the positive control group with Enbrel (10 mg/kg, 3× week, s.c.). A compound of interest was typically tested at 3 doses, e.g. 3, 10, 30 mg/kg, p.o.
Arthritis was scored according to the method of Khachigian 2006, Lin et al 2007 and Nishida et al. 2004). The swelling of each of the four paws was ranked with the arthritic score as follows: 0—no symptoms; 1—mild, but definite redness and swelling of one type of joint such as the ankle or wrist, or apparent redness and swelling limited to individual digits, regardless of the number of affected digits; 2—moderate redness and swelling of two or more types of joints; 3—severe redness and swelling of the entire paw including digits; 4—maximally inflamed limb with involvement of multiple joints (maximum cumulative clinical arthritis score 16 per animal) (Nishida et al., 2004).
The change in body weight (%) after onset of arthritis was calculated as follows: […]
X-ray photos were taken of the hind paws of each individual animal. […]

The structures appear in SMILES notation. A value given as a limit tells only on which side of the number the result lay.

With `CC(=O)Nc1ccc(COc2ccc(-c3cccc4nc(NC(=O)C5CC5)nn34)cc2)cc1` [Compound 92, N-(5-(4-(4-acetamidobenzyloxy)phenyl)-[1,2,4]triazolo[1,5-a]pyridin-2-yl)cyclopropanecarboxamide], the IC50 in assay [1] was above 1 µM.

As for `N#Cc1ccc(COc2ccc(-c3cccc4nc(NC(=O)C5CC5)nn34)cc2)cn1` [Compound 176, N-(5-(4-((6-cyanopyridin-3-yl)methoxy)phenyl)-[1,2,4]triazolo[1,5-a]pyridin-2-yl)cyclopropanecarboxamide], the IC50 in assay [1] was in the range of 0.001 to 0.1 µM. Further, in assay [2] (3 mg/kg), the “clinical score, rat CIA study” value is given as “Statistical significance” and the “paw swelling, rat CIA study” value was “Statistical significance”. The “efficacy in the rat CIA study, all readouts” value in assay [2] (rat, p.o., day 16 to day 30) is “efficacious in all readouts”.

As for `O=C(Nc1nc2cccc(-c3ccc(NCc4ccccc4)cc3)n2n1)C1CC1` [Compound 72, N-(5-(4-(benzylamino)phenyl)-[1,2,4]triazolo[1,5-a]pyridin-2-yl)cyclopropanecarboxamide], the half-inhibitory concentration (IC50) in assay [1] is above 1 µM.

In the case of `O=C(Nc1nc2cccc(-c3ccc(OCc4cccnc4)cc3)n2n1)C1CC1` [Compound 36, N-(5-(4-(pyridin-3-ylmethoxy)phenyl)-[1,2,4]triazolo[1,5-a]pyridin-2-yl)cyclopropanecarboxamide], the 50% inhibitory concentration (IC50) in assay [1] lay in the range of 0.101 to 0.5 µM. Besides, the “activity in the rat CIA study” value in assay [2] (30 mg/kg) is “active”.

As to `O=C(Nc1nc2cccc(-c3ccc(OCc4ccccn4)cc3)n2n1)C1CC1` [Compound 37, N-(5-(4-(pyridin-2-ylmethoxy)phenyl)-[1,2,4]triazolo[1,5-a]pyridin-2-yl)cyclopropanecarboxamide], in assay [1], the IC50 fell in the range of 0.501 to 1 µM. For the same compound, the “activity in the rat CIA study” value in assay [2] (10 mg/kg) is “active”.

The record behind these values is patent publication US8242274B2, “Triazolopyridine kinase inhibitors useful for the treatment of degenerative and inflammatory diseases” (Galapagos NV, priority 2008, dated 2012).
